Source: patent publication US11912693B2, “Compounds for modulating S1P1 activity and methods of using the same” (TREVENA, INC., priority 2017, dated 2024)

How the values were obtained:
[1] = biological target: T1, human sphingosine-1-phosphate receptor 1 (S1P1) (Homo sapiens (Human), UniProt P21453); experiment: β-Arrestin2 recruitment assay (PathHunter), S1P1 CHO-K1 cells; assay type: cell-based; conditions: for hS1P1 B-arrestin2 pEC50: β-arrestin2 recruitment, S1P1 CHO-K1 cells; for Emax: CHO-K1, efficacy (SPAN) normalized to fingolimod, read-out: hS1P1 B-arrestin2 SPAN
Procedure, shortened: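 Enzyme-fragment complementation read-out: agonist-driven β-arrestin2 binding to ProLink-tagged human S1P1 in stable CHO-K1 cells restores β-galactosidase, measured 1 h at room temperature after a 60 min 37° C. compound incubation. Potency as pEC50, efficacy relative to fingolimod (SPAN).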
Target sequence in this assay (P21453 whole entry, looked up, the tested form may be a part): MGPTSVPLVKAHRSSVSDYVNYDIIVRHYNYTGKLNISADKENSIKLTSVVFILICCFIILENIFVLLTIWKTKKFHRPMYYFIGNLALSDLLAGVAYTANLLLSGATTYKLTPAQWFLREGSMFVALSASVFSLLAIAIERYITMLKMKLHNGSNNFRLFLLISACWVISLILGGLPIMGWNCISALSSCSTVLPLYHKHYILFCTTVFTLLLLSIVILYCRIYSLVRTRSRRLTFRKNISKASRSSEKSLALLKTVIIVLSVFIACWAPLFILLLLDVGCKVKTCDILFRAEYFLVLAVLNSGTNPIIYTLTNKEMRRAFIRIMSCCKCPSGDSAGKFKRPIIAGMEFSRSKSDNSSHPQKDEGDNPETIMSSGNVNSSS
Target sequence in this assay (P32121 whole entry partner, looked up, the tested form may be a part): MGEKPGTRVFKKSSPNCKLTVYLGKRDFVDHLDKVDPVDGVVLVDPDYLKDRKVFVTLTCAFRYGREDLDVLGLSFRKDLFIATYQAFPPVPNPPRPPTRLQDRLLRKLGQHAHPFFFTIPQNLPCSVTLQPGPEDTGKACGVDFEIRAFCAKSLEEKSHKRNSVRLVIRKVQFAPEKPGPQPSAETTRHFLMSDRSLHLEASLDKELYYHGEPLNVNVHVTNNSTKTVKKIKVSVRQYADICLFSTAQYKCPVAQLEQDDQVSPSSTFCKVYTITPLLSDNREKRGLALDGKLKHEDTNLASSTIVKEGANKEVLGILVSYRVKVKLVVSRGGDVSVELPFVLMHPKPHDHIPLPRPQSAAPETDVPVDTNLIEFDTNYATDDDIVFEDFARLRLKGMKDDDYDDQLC

[2] = biological target: T1, human sphingosine-1-phosphate receptor 1 (S1P1); experiment: Inhibition of cAMP production (HTRF cAMP HiRange), S1P1 CHO-K1 cells; assay type: cell-based; conditions: for hS1P1 cAMP pEC50: inhibition of cAMP production, S1P1 CHO-K1 cells; for Emax: CHO-K1, efficacy (SPAN) normalized to fingolimod, read-out: hS1P1 cAMP SPAN
Procedure, shortened: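 CHO-K1 cells stably co-expressing human S1P1 (C-terminal Prolink tag) and EA-β-arrestin2 were grown in AssayComplete Media 6 at 37° C. and 5% CO2, plated, and incubated overnight. Agonist-driven inhibition of intracellular cAMP was read by TR-FRET with the HTRF cAMP HiRange kit on a PheraStar reader. Potency is pEC50, and efficacy (SPAN) is normalized to fingolimod.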
Target sequence in this assay (P21453 whole entry, looked up, the tested form may be a part): as the sequence (P21453 whole entry, looked up, the tested form may be a part) above

SMILES | hS1P1 B-arrestin2 pEC50 [1] | hS1P1 cAMP pEC50 [2] | Emax [1] | Emax [2]
CCCC1(CCC)CC(=O)c2cc(-c3nc(-c4cccnc4)no3)ccc2O1 [Compound 218, 2,2-dipropyl-6-[3-(pyridin-3-yl)-1,2,4-oxadiazol-5-yl]-3,4-dihydro-2H-1-benzopyran-4-one] | <5 | <6.5 | – | –
CC(C)n1nnc2cc(-c3ncc(-c4ccccc4Br)s3)ccc21 [Compound 220, 5-(2-bromophenyl)-2-(1-isopropylbenzotriazol-5-yl)thiazole] | <5 | <6.5 | – | –
CCC1(CC)CC(=O)c2cc(-c3nsc(-c4ccccc4OC)n3)ccc2O1 [Compound 222, 2,2-diethyl-6-(5-(2-methoxyphenyl)-1,2,4-thiadiazol-3-yl)chroman-4-one] | >5 | <6.5 | – | –
CCC1(CC)CC(=O)c2cc(-c3nnc(-c4ccc5c(c4)nnn5C(C)C)o3)ccc2O1 [Compound 223, 2,2-diethyl-6-(5-(1-isopropyl-1H-benzo[d][1,2,3]triazol-5-yl)-1,3,4-oxadiazol-2-yl)chroman-4-one] | <5 | <6.5 | < 75% | < 75%
CCC1(CC)CC(=O)c2cc(-c3nc(-c4cccc(C)c4)no3)ccc2O1 [Compound 225, 2,2-diethyl-6-(3-(m-tolyl)-1,2,4-oxadiazol-5-yl)chroman-4-one] | >5 | <6.5 | – | –
CCC1(CC)CC(=O)c2cc(-c3nc(-c4ccncc4F)no3)ccc2O1 [Compound 226, 2,2-diethyl-6-(3-(3-fluoropyridin-4-yl)-1,2,4-oxadiazol-5-yl)chroman-4-one] | <5 | <6.5 | – | –
CCC1(CC)CC(=O)c2cc(-c3nc(-c4cccc(O)c4)no3)ccc2O1 [Compound 227, 2,2-diethyl-6-[3-(3-hydroxyphenyl)-1,2,4-oxadiazol-5-yl]chroman-4-one] | <5 | >6.5 | – | –
COc1cccc(-c2noc(-c3ccc4c(c3)nnn4C(C)C)n2)c1 [Compound 228, 5-(1-isopropyl-1H-benzo[d][1,2,3]triazol-5-yl)-3-(3-methoxyphenyl)-1,2,4-oxadiazole] | <5 | <6.5 | – | –
Cc1cncc(-c2nc(-c3ccc4c(c3)nnn4C(C)C)no2)n1 [Compound 229, 3-(1-isopropyl-1H-benzo[d][1,2,3]triazol-5-yl)-5-(6-methylpyrazin-2-yl)-1,2,4-oxadiazole] | >5 | <6.5 | – | –
COc1ccc(-c2noc(-c3ccc4c(c3)nnn4C(C)C)n2)cc1OC [Compound 230, 3-(3,4-dimethoxyphenyl)-5-(1-isopropyl-1H-benzo[d][1,2,3]triazol-5-yl)-1,2,4-oxadiazole] | <5 | <6.5 | < 75% | < 75%
COc1ccccc1-c1noc(-c2ccc3c(c2)nnn3C2CCOCC2)n1 [Compound 231, 5-[3-(2-methoxyphenyl)-1,2,4-oxadiazol-5-yl]-1-(oxan-4-yl)-1H-1,2,3-benzotriazole] | <5 | <6.5 | < 75% | < 75%
Fc1ccc(-c2noc(-c3ccc4c(c3)nnn4C3CCCC3)n2)cc1 [Compound 232, 1-cyclopentyl-5-[3-(4-fluorophenyl)-1,2,4-oxadiazol-5-yl]-1H-1,2,3-benzotriazole] | <5 | <6.5 | < 75% | < 75%
Brc1ccccc1-c1noc(-c2ccc3c(c2)nnn3C2CCOCC2)n1 [Compound 233, 5-[3-(2-bromophenyl)-1,2,4-oxadiazol-5-yl]-1-(oxan-4-yl)-1H-1,2,3-benzotriazole] | <5 | <6.5 | < 75% | < 75%
Cc1ccc(-c2nc(-c3ccc4c(c3)nnn4C3CCCC3)no2)cc1 [Compound 235, 3-(1-cyclopentyl-1H-benzo[d][1,2,3]triazol-5-yl)-5-(p-tolyl)-1,2,4-oxadiazole] | <5 | <6.5 | – | –
Cc1ccc(-c2noc(-c3ccc4c(c3)nnn4C(C)C)n2)cn1 [Compound 236, 5-[3-(6-methylpyridin-3-yl)-1,2,4-oxadiazol-5-yl]-1-(propan-2-yl)-1H-1,2,3-benzotriazole] | <5 | <6.5 | > 75% | < 75%
CSc1ccc(-c2nc(-c3ccc4c(c3)nnn4C3CCCC3)no2)cc1 [Compound 237, 3-(1-cyclopentyl-1H-benzo[d][1,2,3]triazol-5-yl)-5-(4-(methylthio)phenyl)-1,2,4-oxadiazole] | <5 | <6.5 | < 75% | < 75%
OCCn1nnc2cc(-c3noc(-c4ccccc4Br)n3)ccc21 [Compound 238, 2-(5-(5-(2-bromophenyl)-1,2,4-oxadiazol-3-yl)-1H-benzo[d][1,2,3]triazol-1-yl)ethanol] | <5 | <6.5 | < 75% | < 75%
Cc1ccsc1-c1noc(-c2ccc3c(c2)nnn3CC2CC2)n1 [Compound 239, 1-(cyclopropylmethyl)-5-[3-(3-methylthiophen-2-yl)-1,2,4-oxadiazol-5-yl]-1H-1,2,3-benzotriazole] | <5 | <6.5 | < 75% | < 75%
CC(C)n1nnc2cc(-c3noc(-c4ccccc4OC(F)(F)F)n3)ccc21 [Compound 240, 3-(1-isopropyl-1H-benzo[d][1,2,3]triazol-5-yl)-5-(2-(trifluoromethoxy)phenyl)-1,2,4-oxadiazole] | <5 | <6.5 | > 75% | > 75%
CC(C)n1nnc2cc(-c3nc(-c4ccccn4)no3)ccc21 [Compound 241, 1-(propan-2-yl)-5-[3-(pyridin-2-yl)-1,2,4-oxadiazol-5-yl]-1H-1,2,3-benzotriazole] | <5 | <6.5 | > 75% | > 75%
CCCn1nnc2cc(-c3nc(-c4cccc(C(F)(F)F)c4)no3)ccc21 [Compound 242, 1-propyl-5-{3-[3-(trifluoromethyl)phenyl]-1,2,4-oxadiazol-5-yl}-1H-1,2,3-benzotriazole] | <5 | <6.5 | < 75% | < 75%
